Measurements from patent publication US20050101595A1, “N-containing cycloalkyl-substituted amino-thiazole derivatives and pharmaceutical compositions for inhibiting cell proliferation and methods for their use” (PFIZER INC., priority 2003, published 2005).
Where a name gives a salt, the structure may show the parent alone. Read-outs that look alike come from different tables or passages of the source. One block for each molecule: values may come before it.

Tests used:
CDK2/Cyclin A = CDK2/Cyclin A (Homo sapiens, UniProt P24941); assay: Inhibition of CDK2/Cyclin A Retinoblastoma Kinase Activity; format: biochemical; details: for Ki: apparent Ki, CDK2/proteolyzed cyclin A, Rb fragment substrate, 25 μM ATP; for CDK2 % Inhibition At 0.03 μM: Table 2
Summary of the method: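 Human CDK2, baculovirus/insect-cell expressed, complexed with proteolyzed cyclin A (10 nM or 19 nM CDK2) phosphorylates an Rb fragment with 25 μM [32P/33P]ATP at pH 7.4, 30° C, for 60 or 75 minutes under initial-rate conditions. Filter-captured radioactivity is read by phosphorimager; apparent Ki from competitive-inhibition fits.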

[1] = biological target: human CDK4 and genetically truncated (1-264) cyclin D3 (Homo sapiens, UniProt P11802); assay: Inhibition of CDK4/Cyclin D Retinoblastoma Kinase Activity; format: biochemical; details: for Ki: apparent Ki, CDK4/truncated cyclin D3, Rb fragment substrate, 25 μM ATP
Summary of the method: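 Read-out: 32P/33P incorporation into Rb fragment (386-928) captured on nitrocellulose, phosphorimager. Enzyme 5 nM CDK4/cyclin D3(1-264) from insect cells; ATP 25 μM, pH 7.4, 30 °C, 20 min (60 min for tight binders). Ki from competitive fits.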

HCT-116 cell line = assay: Inhibition of cell growth, tetrazolium salt (MTT) assay; format: cell-based; details: for IC50: Homo sapiens, HCT-116, 120 h, MTT, three to five days, read-out: HCT-116 IC50; for HCT-116 % Inhibition at 0.25 μM: 0.25 μM compound
Summary of the method: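 Growth inhibition is scored relative to cells receiving only 0.5% (v/v) DMSO. Plated cells rest 4 h, then take compound for three to five days at 37° C; MTT reduction to formazan is read at 540 nm.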

[2] = 0.1 μM compound, HCT-116, Table 4
[3] = 0.1 μM compound, HCT-116, Table 3

human CDK4 and genetically truncated (1-264) cyclin D3, sequence (P11802 whole entry, the tested form may be a part): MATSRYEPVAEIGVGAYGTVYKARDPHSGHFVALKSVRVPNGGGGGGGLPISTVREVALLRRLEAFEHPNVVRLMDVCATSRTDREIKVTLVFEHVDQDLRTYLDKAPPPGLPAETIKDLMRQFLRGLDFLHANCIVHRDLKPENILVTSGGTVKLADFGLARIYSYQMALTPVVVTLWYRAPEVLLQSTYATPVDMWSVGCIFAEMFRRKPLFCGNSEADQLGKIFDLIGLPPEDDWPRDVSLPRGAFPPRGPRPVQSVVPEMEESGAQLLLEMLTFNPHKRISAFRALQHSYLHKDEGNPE
human CDK4 and genetically truncated (1-264) cyclin D3, sequence (P30281 1-264 partner): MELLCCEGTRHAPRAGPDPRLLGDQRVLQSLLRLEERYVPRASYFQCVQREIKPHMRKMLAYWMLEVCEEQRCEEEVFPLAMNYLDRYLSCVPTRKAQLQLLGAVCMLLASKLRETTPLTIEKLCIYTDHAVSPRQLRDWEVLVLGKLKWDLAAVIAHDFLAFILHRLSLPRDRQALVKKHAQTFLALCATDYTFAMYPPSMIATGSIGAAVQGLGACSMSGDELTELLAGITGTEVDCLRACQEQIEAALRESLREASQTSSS

Structure (SMILES): Nc1nc(NC2CCN(S(=O)(=O)c3ccc(-c4nnn[nH]4)cc3)CC2)sc1C(=O)c1c(F)cccc1F [Example J4, 1-(4-Amino-2-{1-[4-(1H-tetrazol-5-yl)-benzenesulfonyl]-piperidin-4ylamino}-thiazol-5-yl)-1-(2,6-difluoro-phenyl)-methanone Trifluoroacetic Acid Salt]
- Ki (CDK2/Cyclin A): < 1 nM
- Ki [1]: 1.7 nM
- IC50 (HCT-116 cell line; first HCT-116 column (c4)): > 5000 nM
- IC50 (HCT-116 cell line; second HCT-116 column (c5)): > 5000 nM

Structure (SMILES): CCCc1ccccc1NC(=O)N1CCC(Nc2nc(N)c(C(=O)c3c(F)cccc3F)s2)CC1 [Example O81]
- CDK2 % Inhibition At 0.03 μM (CDK2/Cyclin A; 0.03 μM compound): 25%
- CDK4 % Inhibition at 0.03 μM ([1]; 0.03 μM compound, Table 2): −4%
- HCT-116 % Inhibition at 0.25 μM (HCT-116 cell line; HCT-116, Table 2): 44%

Structure (SMILES): CN1C(=O)c2ccc(NC(=O)N3CCC(Nc4nc(N)c(C(=O)c5c(F)cccc5F)s4)CC3)cc2C1=O [Example O88]
- CDK2 % Inhibition At 0.03 μM (CDK2/Cyclin A; 0.03 μM compound): 31%
- CDK4 % Inhibition at 0.03 μM ([1]; 0.03 μM compound, Table 2): 12%
- HCT-116 % Inhibition at 0.25 μM (HCT-116 cell line; HCT-116, Table 2): 45%

Structure (SMILES): CN1CC[C@@H](Oc2ccc(S(=O)(=O)N3CCC(Nc4nc(N)c(C(=O)c5c(F)cccc5F)s4)CC3)cn2)C1 [Example H27, (4-Amino-2-{1-[6-(1-methyl-pyrrolidin-3R-yloxy)-pyridine-3-sulfonyl]-piperidin-4-ylamino}-thiazol-5-yl)-(2,6-difluoro-phenyl)-methanone Hydrochloride]
- Ki (CDK2/Cyclin A): 0.35 nM
- Ki [1]: 0.97 nM
- IC50 (HCT-116 cell line; first HCT-116 column (c4)): 80 nM
- IC50 (HCT-116 cell line; second HCT-116 column (c5)): 290 nM

Structure (SMILES): Nc1nc(NC2CCN(C(=O)Nc3ccccc3Cl)CC2)sc1C(=O)c1c(F)cccc1F [Example O6]
- CDK2 % Inhibition At 0.03 μM (CDK2/Cyclin A; 0.03 μM compound): 36%
- CDK4 % Inhibition at 0.03 μM ([1]; 0.03 μM compound, Table 2): 10%
- HCT-116 % Inhibition at 0.25 μM (HCT-116 cell line; HCT-116, Table 2): 12%

Further lines, with some results ahead:

- CDK2 % Inhibition at 0.03 μM (CDK2/Cyclin A; 0.03 μM compound, Table 4): 29%
- CDK4 % Inhibition at 0.03 μM ([1]; 0.03 μM compound, Table 4): 43%
Structure (SMILES): Nc1nc(NC2CCN(C(=O)[C@@H]3C[C@H]3c3ccccc3)CC2)sc1C(=O)c1c(F)cccc1F (relative stereo) [Example Q55]
- HCT-116 % Inhibition at 0.1 μM (HCT-116 cell line; [2]): 10%
- HCT-116 % Inhibition at 0.25 μM (HCT-116 cell line; HCT-116, Table 4): 31%

- CDK2 % Inhibition at 0.03 μM (CDK2/Cyclin A; 0.03 μM compound, Table 4): 18%
- CDK4 % Inhibition at 0.03 μM ([1]; 0.03 μM compound, Table 4): 60%
Structure (SMILES): Nc1nc(NC2CCN(C(=O)c3ccc(F)cc3)CC2)sc1C(=O)c1c(F)cccc1F [Example Q26]
- HCT-116 % Inhibition at 0.1 μM (HCT-116 cell line; [2]): 3%
- HCT-116 % Inhibition at 0.25 μM (HCT-116 cell line; HCT-116, Table 4): 42%

- CDK2 % Inhibition at 0.03 μM (CDK2/Cyclin A; at 0.03 μM): 41%
- CDK4 % Inhibition at 0.03 μM ([1]; at 0.03 μM): 72%
Structure (SMILES): CC(C)(C)c1cc(C(=O)N2CCC(Nc3nc(N)c(C(=O)c4c(F)cccc4F)s3)CC2)n(Cc2ccccc2)n1 [Example R58]
- HCT-116 % Inhibition at 0.1 μM (HCT-116 cell line; HCT-116 cells, at 0.1 μM): 5%
- HCT-116 5 Inhibition at 0.25 μM (HCT-116 cell line; HCT-116 cells): 44

- CDK2 % Inhibition at 0.03 μM (CDK2/Cyclin A; at 0.03 μM): 53%
- CDK4 % Inhibition at 0.03 μM ([1]; at 0.03 μM): 66%
Structure (SMILES): COc1ccc(OC)c(C(=O)N2CCC(Nc3nc(N)c(C(=O)c4c(F)cccc4F)s3)CC2)c1 [Example R117]
- HCT-116 % Inhibition at 0.1 μM (HCT-116 cell line; HCT-116 cells, at 0.1 μM): 7%
- HCT-116 5 Inhibition at 0.25 μM (HCT-116 cell line; HCT-116 cells): 45

- CDK2 % Inhibition at 0.03 μM (CDK2/Cyclin A; 0.03 μM compound, Table 3): 55%
- CDK4 % Inhibition at 0.03 μM ([1]; 0.03 μM compound, Table 3): 62%
Structure (SMILES): Cn1nc(-c2ccc(S(=O)(=O)N3CCC(Nc4nc(N)c(C(=O)c5c(F)cccc5F)s4)CC3)s2)cc1C(F)(F)F [Example P44]
- HCT-116 % Inhibition at 0.1 μM (HCT-116 cell line; [3]): 0%
- HCT-116 % Inhibition at 0.25 μM (HCT-116 cell line; HCT-116, Table 3): 25%

- CDK2 % Inhibition at 0.03 μM (CDK2/Cyclin A; at 0.03 μM): −34%
- CDK4 % Inhibition at 0.03 μM ([1]; at 0.03 μM): 3%
Structure (SMILES): Nc1nc(NC2CCN(C(=O)C(c3ccccc3)c3ccccc3)CC2)sc1C(=O)c1c(F)cccc1F [Example R1]
- HCT-116 % Inhibition at 0.1 μM (HCT-116 cell line; HCT-116 cells, at 0.1 μM): 0%
- HCT-116 5 Inhibition at 0.25 μM (HCT-116 cell line; HCT-116 cells): 32

- CDK2 % Inhibition at 0.03 μM (CDK2/Cyclin A; at 0.03 μM): −2%
- CDK4 % Inhibition at 0.03 μM ([1]; at 0.03 μM): −6%
Structure (SMILES): Nc1nc(NC2CCN(C(=O)C3(c4ccccc4)CC3)CC2)sc1C(=O)c1c(F)cccc1F [Example R90]
- HCT-116 % Inhibition at 0.1 μM (HCT-116 cell line; HCT-116 cells, at 0.1 μM): 0%
- HCT-116 5 Inhibition at 0.25 μM (HCT-116 cell line; HCT-116 cells): 19

- CDK2 % Inhibition at 0.03 μM (CDK2/Cyclin A; 0.03 μM compound, Table 3): 58%
- CDK4 % Inhibition at 0.03 μM ([1]; 0.03 μM compound, Table 3): 59%
Structure (SMILES): Nc1nc(NC2CCN(S(=O)(=O)c3ccccc3F)CC2)sc1C(=O)c1c(F)cccc1F [Example P32]
- HCT-116 % Inhibition at 0.1 μM (HCT-116 cell line; [3]): 13%
- HCT-116 % Inhibition at 0.25 μM (HCT-116 cell line; HCT-116, Table 3): 28%

- CDK2 % Inhibition at 0.03 μM (CDK2/Cyclin A; at 0.03 μM): −7%
- CDK4 % Inhibition at 0.03 μM ([1]; at 0.03 μM): 20%
Structure (SMILES): Cc1c(S(=O)(=O)c2ccc(Cl)cc2)csc1C(=O)N1CCC(Nc2nc(N)c(C(=O)c3c(F)cccc3F)s2)CC1 [Example R47]
- HCT-116 % Inhibition at 0.1 μM (HCT-116 cell line; HCT-116 cells, at 0.1 μM): 8%
- HCT-116 5 Inhibition at 0.25 μM (HCT-116 cell line; HCT-116 cells): 45

- CDK2 % Inhibition at 0.03 μM (CDK2/Cyclin A; 0.03 μM compound, Table 4): −42%
- CDK4 % Inhibition at 0.03 μM ([1]; 0.03 μM compound, Table 4): 5%
Structure (SMILES): CCCCC(CC)COC(=O)N1CCC(Nc2nc(N)c(C(=O)c3c(F)cccc3F)s2)CC1 (stereo not drawn) [Example Q7]
- HCT-116 % Inhibition at 0.1 μM (HCT-116 cell line; [2]): 5%
- HCT-116 % Inhibition at 0.25 μM (HCT-116 cell line; HCT-116, Table 4): 39%
